Consider 59 sequences from the supplement of paper PMC11208160.
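Further: IS621 recombinase and bridge RNA in Escherichia coli cells.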

This series can be described thus: recombinant barcode read abundance after kanamycin selection (control-corrected) (log10(CPM+1)); higher = more efficient recombination; sequences stand for … in AGTGCAGAGAAAATCGGCCAGTTTTCTCTGCCTGCAGTCCGCATGCCGT…AGATTTATGCAGCGGACTGCCTTTCTCCCAAAGTGATAAACCGGACAGTATCATGGACCGGTTTTCCCGGTAATCCGTATTTGCAAGGTTGGTTTCACT; site = the 11-nt target. The gist of the method:
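Oligos holding a promoter, target, barcode and the J23119-driven first 104 bases of the bridge RNA were Gibson-cloned into a vector that supplied the other 73 bp plus a T7-inducible recombinase. This library was co-electroporated with a donor plasmid into E. coli. Two replicates went on chloramphenicol/ampicillin LB agar (control) and two on chloramphenicol/ampicillin/kanamycin with 0.1 mM IPTG. Recombination efficiency is read from averaged, control-corrected barcode counts per million at recombinant junctions, reported as log10(CPM+1).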
Turning to “TCTTAGACTTGGGTTCTAACCTGTTGCTT (site TCTTAGACTAA)”, the “recombinant barcode read abundance (log10)” value amounted to 0.17.

For the sequence “TCTTAGACTTGGGTTCTAACCTGTTGCTT (site TGTTGGACTAA)”, the “recombinant barcode read abundance (log10)” value came out at 0.0581.

Consider “TCTTCCACTTGGGTTCTAACCTGTTGCCT (site ACTTCCACTAG)”, for which the “recombinant barcode read abundance (log10)” value was 0.0827. Turning to “TCTTCCACTTGGGTTCTAACCTGTTGCCT (site CCTTCCACTAG)”, the “recombinant barcode read abundance (log10)” value was found to be 0.0781.

Turning to “TCTTCCACTTGGGTTCTAACCTGTTGCCT (site GCTTCCACTAG)”, the “recombinant barcode read abundance (log10)” value turned out to be 0.0327.

For “TCTTCCACTTGGGTTCTAACCTGTTGCCT (site TCTTCCACTAG)”, the “recombinant barcode read abundance (log10)” value was found to be 0.385. The result for “TCTTCGACTTGGGTTCTAACCTGTTGCAG (site GGAAAAGCTAA)” reads 0.0479; that for “TCTTCGACTTGGGTTCTAACCTGTTGCAG (site TCTTCGACTCT)”, 0.111; that for “TCTTTACCTTGGGTTCTAACCTGTTGCCT (site ACTTTACCTAG)”, 0.146. The figure for “TCTTTACCTTGGGTTCTAACCTGTTGCCT (site CCTTTACCTAG)” is 0.182; for “TCTTTACCTTGGGTTCTAACCTGTTGCCT (site GCTTTACCTAG)” it is 0.043; for “TCTTTACCTTGGGTTCTAACCTGTTGCCT (site TCTTTACCTAG)” it is 0.0757. The figure for “TGAAATCCTTGGGTTCTAACCTGTTGCCT (site GGATATCCTAG)” is 0.848. In the case of “TGAAATCCTTGGGTTCTAACCTGTTGCCT (site TGAAATCCTAG)”, the “recombinant barcode read abundance (log10)” value was found to be 0.304. “TGAATTACTTGGGTTCTAACCTGTTGCCT (site TGAAATACTAG)”: the “recombinant barcode read abundance (log10)” value is 0.116.

Take “TGAATTACTTGGGTTCTAACCTGTTGCCT (site TGAACTACTAG)”: the “recombinant barcode read abundance (log10)” value was found to be 0.108. As to “TGAATTACTTGGGTTCTAACCTGTTGCCT (site TGAAGTACTAG)”, the “recombinant barcode read abundance (log10)” value worked out at 0.033. With “TGAATTACTTGGGTTCTAACCTGTTGCCT (site TGAATTACTAG)”, the “recombinant barcode read abundance (log10)” value was 0.102.

As for “TGACGTCCTTGGGTTCTAACCTGTTGCCT (site TGACGTCCTAA)”, the “recombinant barcode read abundance (log10)” value is 0.455.

Consider “TGACGTCCTTGGGTTCTAACCTGTTGCCT (site TGACGTCCTAC)”, for which the “recombinant barcode read abundance (log10)” value was 0.315. The figure for “TGACGTCCTTGGGTTCTAACCTGTTGCCT (site TGACGTCCTAG)” is 0.253; for “TGACGTCCTTGGGTTCTAACCTGTTGCCT (site TGACGTCCTAT)” it is 0.057; for “TGACGTCCTTGGGTTCTAACCTGTTGCGT (site TGACGTCCTAA)” it is 0.0894. The result for “TGACGTCCTTGGGTTCTAACCTGTTGCGT (site TGACGTCCTAC)” reads 1.72; that for “TGACGTCCTTGGGTTCTAACCTGTTGCGT (site TGACGTCCTAG)”, 0.0763; that for “TGACGTCCTTGGGTTCTAACCTGTTGCGT (site TGACGTCCTAT)”, 0.286. Turning to “TGACGTTCTTGGGTTCTAACCTGTTGCCT (site TGACCTTCTAG)”, the “recombinant barcode read abundance (log10)” value came to 0.189. The result for “TGACGTTCTTGGGTTCTAACCTGTTGCCT (site TGACGTTCTAG)” reads 0.313; that for “TGAGAGACTTGGGTTCTAACCTGTTGCGT (site ATGAGTCCTTT)”, 0.0989; that for “TGAGAGACTTGGGTTCTAACCTGTTGCGT (site TGAGAGACTAC)”, 2.94. For the sequence “TGAGGTGCTTGGGTTCTAACCTGTTGCCT (site GGAGGGGCTAG)”, the “recombinant barcode read abundance (log10)” value was 0.193. On to “TGAGGTGCTTGGGTTCTAACCTGTTGCCT (site TGAGGTGCTAG)”, for which the “recombinant barcode read abundance (log10)” value was 0.818. The result for “TGATCCACTTGGGTTCTAACCTGTTGCCT (site AGATCCACTAG)” reads 0.0667. The figure for “TGATCCACTTGGGTTCTAACCTGTTGCCT (site CGATCCACTAG)” is 0.0881; for “TGATCCACTTGGGTTCTAACCTGTTGCCT (site GGATCCACTAG)” it is 0.0751. For the sequence “TGATCCACTTGGGTTCTAACCTGTTGCCT (site TGATCCACTAG)”, the “recombinant barcode read abundance (log10)” value turned out to be 0.596. As to “TGATCTACTTGGGTTCTAACCTGTTGCTT (site TGATCTACTAA)”, the “recombinant barcode read abundance (log10)” value was 0.0729. The figure for “TGATCTACTTGGGTTCTAACCTGTTGCTT (site TGCTCTACTAA)” is 0.0846. The figure for “TGATCTACTTGGGTTCTAACCTGTTGCTT (site TGGTCTACTAA)” is 0.0447. The result for “TGATCTACTTGGGTTCTAACCTGTTGCTT (site TGTTCTACTAA)” reads 0.0588. “TGCAAGTCTTGGGTTCTAACCTGTTGCCT (site TGCAAGTCTAG)”: the “recombinant barcode read abundance (log10)” value stood at 0.361. The result for “TGCAAGTCTTGGGTTCTAACCTGTTGCCT (site TGCGAGTCTAG)” reads 0.137; that for “TGCACCTCTTGGGTTCTAACCTGTTGCTA (site CAATAGACTAG)”, 0.0267.

As for “TGCACCTCTTGGGTTCTAACCTGTTGCTA (site TGCACCTCTTA)”, the “recombinant barcode read abundance (log10)” value is 0.541. Take “TGCCAATCTTGGGTTCTAACCTGTTGCCT (site TGCCAATCTAG)”: the “recombinant barcode read abundance (log10)” value is 0.242. “TGCCAATCTTGGGTTCTAACCTGTTGCCT (site TTCCAATCTTG)”: the “recombinant barcode read abundance (log10)” value was 0.0187. The figure for “TGCCATCCTTGGGTTCTAACCTGTTGCAT (site AGCCATCCTAT)” is 0.111; for “TGCCATCCTTGGGTTCTAACCTGTTGCAT (site TGCCATCCTAT)” it is 0.544; for “TGCCTCTCTTGGGTTCTAACCTGTTGCCT (site GGCTTCTCTAG)” it is 0.0915.

As for “TGCCTCTCTTGGGTTCTAACCTGTTGCCT (site TGCCTCTCTAG)”, the “recombinant barcode read abundance (log10)” value is 0.172. The figure for “TGCCTGCCTTGGGTTCTAACCTGTTGCAG (site ATAGAATCTGA)” is 0.245.

Regarding “TGCCTGCCTTGGGTTCTAACCTGTTGCAG (site TGCCTGCCTCT)”, the “recombinant barcode read abundance (log10)” value amounted to 0.0105. With “TGCGAGTCTTGGGTTCTAACCTGTTGCCT (site TGCAAGTCTAG)”, the “recombinant barcode read abundance (log10)” value was 0.626. Consider “TGCGAGTCTTGGGTTCTAACCTGTTGCCT (site TGCGAGTCTAG)”, for which the “recombinant barcode read abundance (log10)” value is 1.12. The figure for “TGCGCCACTTGGGTTCTAACCTGTTGCCT (site TGCGCAACTAG)” is 0.113; for “TGCGCCACTTGGGTTCTAACCTGTTGCCT (site TGCGCCACTAG)” it is 0.517; for “TGCGCCACTTGGGTTCTAACCTGTTGCCT (site TGCGCGACTAG)” it is 0.0341. The result for “TGCGCCACTTGGGTTCTAACCTGTTGCCT (site TGCGCTACTAG)” reads 0.0797; that for “TGCGTCACTTGGGTTCTAACCTGTTGCGT (site TGCGTCACTAC)”, 1.56.
